# According to US20020110602A1, “Method and apparatus for washing produce” (priority 2000, published 2002):
# “And” between values parts separate entries of the source, which are not always exact repeats. Identical values can stand only once. Like-named read-outs stand apart in the source and are kept apart here.
# Key:
# P. digitatum [1] = assay: Effect of pH and bicarbonate concentration on decay of oranges; type: in vivo, Penicillium digitatum
# Green Mold [2] = conditions: 35 seconds, 2 weeks at 50° F.
# P. digitatum [3] = assay: Immersion washing of oranges with various solutions, decay; type: in vivo, Penicillium digitatum
# Green Mold [4] = conditions: 35 seconds, 2 weeks at 50° F.; remark: listed apart in the source
# P. digitatum [5] = conditions: fresh oranges and lemons; pressure washing; FIG. 6
# [6] = system: P. digitatum (M6R strain); assay: SOPP, sodium bicarbonate & chlorine treatment, navel orange decay control; type: in vivo, Penicillium digitatum
# [7] = system: P. digitatum (M6R strain); assay: High pressure washing of inoculated navel oranges with sodium hypochlorite solution, no bicarbonate; type: in vivo, Penicillium digitatum; conditions: 2 weeks at 55° F.; for % Fruit Decay (Average): navel oranges; for Total Decay: number of decayed navel oranges; for No decay: number of navel oranges without decay
# Green Mold [8] = assay: Washing of oranges inoculated with Green Mold, decay; type: in vivo, Penicillium digitatum; conditions: oranges infected by green mold; four groups of 25; pressure washer, or soak tank for soda ash, sodium bicarbonate
# [9] = system: sour rot (Geotrichum Candidum); assay: Effect of treatments on sour rot decay of lemons; type: in vivo
# P. digitatum isolate M6R [10] = conditions: oranges, 1 or 3% wt/vol, 200 micrograms/ml free NaOCl, pH 8.3, controls 97%
# P. digitatum isolate M6R [11] = conditions: lemons, 1 or 3% wt/vol, 200 micrograms/ml free NaOCl, pH 8.3, controls 97%
# P. digitatum [12] = conditions: lemons inoculated 48 hours before treatment; immersion; cited from earlier work
# [13] = first set of data, four groups of 25
# [14] = second set of data, dipping, pH 11.4, alone
# [15] = second set of data, dipping, pH 7.5, alone
# [16] = pressure washer (100 psi), navel oranges, replicates R1-R4, 2 weeks at 55° F., listed as Chlorine @ 200 ppm
# [17] = high pressure (about 300 psi) wash
# [18] = low pressure (about 95 psi) wash
# [19] = second set of data, four groups of 25
smiles,measurement,setting,value
"O=C([O-])[O-].[Na+].[Na+] [0.3 M soda ash, pH 11.4, sodium carbonate]",Mean Decay (%),P. digitatum [1]; [13],10.000%
same,Mean Decay (%),P. digitatum [1]; [14],10.000%
"O=C([O-])O.[Na+] [0.3 M sodium bicarbonate, pH 7.5, sodium bicarbonate]",Mean Decay (%),P. digitatum [1]; [13],41.000%
same,Mean Decay (%),P. digitatum [1]; [15],41.000%
"O=C([O-])O.[Na+] [0.3 M sodium bicarbonate, pH 8.4, sodium bicarbonate]",Mean Decay (%),P. digitatum [1]; [13],43.000%
same,Mean Decay (%),"P. digitatum [1]; second set of data, dipping, pH 8.4, alone",43.000%
"O=C([O-])[O-].[Na+].[Na+] [0.15 M soda ash, pH 11.4, sodium carbonate]",Mean Decay (%),P. digitatum [1]; [13],31.000%
same,Mean Decay (%),P. digitatum [1]; [14],31.000%
"O=C([O-])O.[Na+] [0.15 M sodium bicarbonate, pH 7.5, sodium bicarbonate]",Mean Decay (%),P. digitatum [1]; [13],65.000%
same,Mean Decay (%),P. digitatum [1]; [15],65.000%
"O=C([O-])O.[Na+] [BCB 0.5% alone, sodium bicarbonate]",Decay (%) Oranges,Green Mold [2]; high pressure washing,76.3%
same,Decay (%) Oranges,Green Mold [2]; low pressure washing,82.7%
same,Decay (%) Oranges,"Green Mold [2]; no pressure washing, dip",56.9%
same,Mean Decay (%),P. digitatum [3]; in vivo,27.000%
same,Decay (%) Lemons,Green Mold [4]; high pressure washing,55.3%
same,Decay (%) Lemons,Green Mold [4]; low pressure washing,66.2%
same,Decay (%) Lemons,"Green Mold [4]; no pressure washing, dip",45.1%
"O=C([O-])O.[Na+] [BCB 0.25% alone, sodium bicarbonate]",Mean Decay (%),P. digitatum [3]; in vivo,46.000%
"O=C([O-])O.[Na+] [BCB 1% alone, sodium bicarbonate]",Mean Decay (%),P. digitatum [3]; in vivo,13.000%
"O=C([O-])O.[Na+] [BCB 3% alone, sodium bicarbonate]",Mean Decay (%),P. digitatum [3]; in vivo,7.000%
same,decay control,P. digitatum [5],~100%
"[Na+].[O-]Cl [HOCl 200 ppm alone, sodium hypochlorite]",Mean Decay (%),"P. digitatum [3]; immersion, oranges, mean of four samples of 25",88.000%
same,Mean Decay (%),"[6]; 100 psi wash, navel oranges (Table 10)",99.3% (a)
same,Decay Control (%),"[6]; 100 psi wash, navel oranges, relative to inoculated control",0.0%
same,"% Decay, Mean %","[6]; pressure washer (100 psi), navel oranges, mean of four replicates",99.3%
same,# Decay,[6]; [16],105 and 104 and 95 and 98
same,# Healthy,[6]; [16],0 and 1 (3×)
same,% Decay,[6]; [16],100.0% and 99.0% (3×)
"OCl [HOCl pH 7.5, HOCl]",Mean Decay (%),P. digitatum [1]; [13],99.000%
same,Mean Decay (%),"P. digitatum [1]; second set of data, dipping, listed as HOCl pH 7.5 alone",99.000%
"OCl [HOCl pH 8.4, HOCl]",Mean Decay (%),P. digitatum [1]; [13],99.000%
same,Mean Decay (%),"P. digitatum [1]; second set of data, dipping, listed as HOCl pH 8.4 alone",99.000%
"OCl [HOCl pH 11.4, HOCl]",Mean Decay (%),P. digitatum [1]; [13],95.000%
same,Mean Decay (%),P. digitatum [1]; [14],95.000%
"[Na+].[O-]Cl [High Cl, sodium hypochlorite]",% Fruit Decay (Average),[7]; [17],97.5%
same,% Fruit Decay (Average),[7]; [18],98%
same,Total Decay,[7]; [17],197
same,Total Decay,[7]; [18],196
same,No decay,[7]; [17],5
same,No decay,[7]; [18],4
"[Na+].[O-]Cl [Low Cl, sodium hypochlorite]",% Fruit Decay (Average),[7]; [17],98.5%
same,% Fruit Decay (Average),[7]; [18],99.5%
same,Total Decay,[7]; [17],201
same,Total Decay,[7]; [18],199
same,No decay,[7]; [17],3
same,No decay,[7]; [18],1
"CC/C=C\CC1C(=O)CCC1CC(=O)OC (stereo not shown) [Methyl jasmenate, high rate, Methyl jasmenate]",Mean Decay (%),P. digitatum [1]; [13],100.000%
same,Mean Decay (%),"P. digitatum [1]; second set of data, dipping",100.000%
"[Na+].[O-]Cl [NaOCl 200 ppm pH 7.5 alone at 80° F., sodium hypochlorite]",Mean Decay (%),Green Mold [8],17.000%
same,Mean Decay (%),[9]; [13],18.112%
same,Mean Decay (%),[9]; [19],18.112%
"[O][Cl+][O-] [Oxine 3-6 ppm alone at 80° F., chlorine dioxide]",Mean Decay (%),Green Mold [8],14.000%
same,Mean Decay (%),"[9]; first set of data, four groups of 25, listed as Oxine 3-8 ppm, 80° F.",21.710%
same,Mean Decay (%),"[9]; second set of data, four groups of 25, listed as Oxine 5-8 ppm 80° F.",21.710%
"[O][Cl+][O-] [Oxine 75 ppm alone at 80° F., chlorine dioxide]",Mean Decay (%),Green Mold [8],14.000%
same,Mean Decay (%),"[9]; first set of data, four groups of 25, 80° F.",22.338%
same,Mean Decay (%),"[9]; second set of data, four groups of 25, listed as Oxine 75 ppm 80° F.",22.358%
"[O][Cl+][O-] [Oxine 200 ppm alone at 80° F., chlorine dioxide]",Mean Decay (%),Green Mold [8],18.000%
same,Mean Decay (%),"[9]; first set of data, four groups of 25, listed as Ozine 200 ppm, alone 80° F.",10.818%
same,Mean Decay (%),"[9]; second set of data, four groups of 25, listed as Oxine 200 ppm 80° F.",10.878%
"O=C([O-])[O-].[Na+].[Na+] [Soda ash 3% w/v at 80° F., sodium carbonate]",Mean Decay (%),Green Mold [8],11.000%
same,Decay (%) Oranges,"Green Mold [2]; no pressure washing, dip",13.0%
same,Mean Decay (%),[9]; [13],10.638%
same,Mean Decay (%),[9]; [19],10.856%
same,Decay (%) Lemons,"Green Mold [4]; no pressure washing, dip",6.8%
O=C([O-])O.[Na+] [sodium bicarbonate],mean decay,P. digitatum isolate M6R [10]; HPSW at 2150 kPa (320 psi),20%
same,mean incidence of decay,P. digitatum isolate M6R [10]; tank treatment 35 seconds,19%
same,mean decay,P. digitatum isolate M6R [11]; HPSW at 2150 kPa (320 psi),17%
same,mean incidence of decay,P. digitatum isolate M6R [11]; tank treatment 35 seconds,22%
O=C([O-])[O-].[Na+].[Na+] [sodium carbonate],reduction of incidence of infections from wounds,P. digitatum [12],more than 90%
